{"source": "patent US10813944B2", "about": "“Cyclodextrins as procoagulants” (STICHTING SANQUIN BLOEDVOORZIENING, priority 2016, dated 2020)", "type_in_all_cases": "biochemical, human", "key": {"[1]": {"test_system": "plasma deficient in coagulation factor IX", "assay": "Thrombin generation assay in plasma deficient in coagulation factor IX", "procedure": "(§1) The Calibrated Automated Thrombogram® assays the generation of thrombin in clotting plasma using a microtiter plate reading fluorometer (Fluoroskan Ascent, ThermoLab systems, Helsinki, Finland) and Thrombinoscope® software (Thrombinoscope BV, Maastricht, The Netherlands). The assay was carried out as described by Hemker et al. (Pathofysiol. IIaemost. Thromb. 2003, 33, 4-15), and the Thrombinoscope® manual. Coagulation was triggered by recalcification in the presence of 1 or 5 pM recombinant human tissue factor (Innovin®, Siemens, Marburg, Germany), 4 μM phospholipids, and 417 μM fluorogenic substrate Z-Gly-Gly-Arg-AMC (Bachem, Bubendorf, Switzerland). Fluorescence was monitored using the Fluoroskan Ascent fluorometer (ThermoLabsystems, Helsinki, Finland), and the lag time, peak thrombin, velocity index and area under the curve (ETP) were calculated using the Thrombinoscope® software (Thrombinoscope BV)."}, "[2]": {"test_system": "plasma deficient in coagulation factor VIII", "assay": "Thrombin generation assay in plasma deficient in coagulation factor VIII", "procedure": "FIG. 20: Plasma deficient in coagulation factor VIII was spiked with cyclodextrin OKL-1111 (A), OKL-1180 (B), and OKL-1187 (C) at the indicated concentrations.\nas §1"}, "[3]": {"test_system": "thrombin generation in pooled normal plasma", "assay": "Calibrated Automated Thrombogram thrombin generation assay in pooled normal plasma", "conditions": "no anticoagulant; cyclodextrin 100 μM unless otherwise indicated; 1 pM TF", "procedure": "FIGS. 3-8, 12, 14-19 and 22-27: Pooled normal plasma was spiked with cyclodextrins (100 μM, unless otherwise indicated) and anticoagulants. The concentrations of the anticoagulants were 100 ng/ml for dabigatran (A), 100 ng/ml for rivaroxaban (B), 60 ng/ml for apixaban (C), 60 ng/ml for edoxaban (D). The plasmas were subjected to thrombin generation analysis as described in the Materials and Methods section with 1 pM tissue factor (TF) as initiator of coagulation.\nas §1\nThrombin generation analyses were performed in pooled normal plasma with and without the addition of anticoagulants."}, "[4]": {"test_system": "plasma of a hemophilia A patient containing anti-FVIII antibodies", "assay": "Thrombin generation in plasma of a hemophilia A patient with anti-factor VIII antibodies", "conditions": "anti-FVIII antibodies 50 BU", "procedure": "FIG. 28: Effect of OKL-1111 (A), OKL-1180 (B) and OKL-1187 (C) on coagulation in plasma of a hemophilia A patient with anti-factor VIII antibodies. BU=Bethesda Units.\nas §1\nThe patient had developed antibodies against factor VIII prior to plasma withdrawal. The plasma contained high levels of anti-FVIII antibodies (50 BU)."}}}
{"smiles": "O=C(O)CCCCCCCSCC1OC2OC3C(CSCCCCCCCC(=O)O)OC(OC4C(CSCCCCCCCC(=O)O)OC(OC5C(CSCCCCCCCC(=O)O)OC(OC6C(CSCCCCCCCC(=O)O)OC(OC7C(CSCCCCCCCC(=O)O)OC(OC8C(CSCCCCCCCC(=O)O)OC(OC1C(O)C2O)C(O)C8O)C(O)C7O)C(O)C6O)C(O)C5O)C(O)C4O)C(O)C3O", "note": "(stereo not shown) [OKL-1180]", "values": [{"measurement": "procoagulant activity in factor IX deficient plasma", "setting": "[1]", "value": "procoagulant activity"}, {"measurement": "procoagulant effect in factor VIII deficient plasma", "setting": "[2]", "value": "procoagulant effects"}, {"measurement": "procoagulant effect in normal plasma", "setting": "[3]", "value": "procoagulant activity"}, {"measurement": "thrombin generation in hemophilia A patient plasma", "setting": "[4]", "value": "concentration-dependently stimulated thrombin generation"}]}
